From ChEMBL document CHEMBL1201862, “PubChem BioAssay data set” (2004)
Blank lines part the entries; values can stand above or below the molecule they belong to. The source made the active and inactive calls.

Columns and labels:
[1] = target: T1, Orexin/Hypocretin receptor type 1 (Homo sapiens, UniProt O43613); test: (§1) Fluorescence-based cell-based high throughput dose response assay for antagonists of the orexin 1 receptor (OX1R; HCRTR1). [Related pubchem assays (depositor defined):AID434989, AID435008, AID463079, AID485270, AID492963, AID492964, AID492965, AID493232, AID504717, AID504718]; format: functional
T1 sequence (O43613 whole entry): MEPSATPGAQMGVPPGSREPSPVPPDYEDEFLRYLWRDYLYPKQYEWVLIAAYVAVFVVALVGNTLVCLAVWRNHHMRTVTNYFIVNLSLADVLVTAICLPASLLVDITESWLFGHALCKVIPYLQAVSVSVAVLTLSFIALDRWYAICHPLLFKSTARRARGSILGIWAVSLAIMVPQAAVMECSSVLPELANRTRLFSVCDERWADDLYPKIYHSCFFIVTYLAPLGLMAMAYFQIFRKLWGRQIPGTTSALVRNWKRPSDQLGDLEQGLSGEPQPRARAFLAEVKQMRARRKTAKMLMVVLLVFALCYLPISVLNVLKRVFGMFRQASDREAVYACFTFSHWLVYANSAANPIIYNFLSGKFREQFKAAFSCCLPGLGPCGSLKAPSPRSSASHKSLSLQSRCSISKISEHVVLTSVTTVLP

[2] = target: T2, Orexin receptor type 2 (Homo sapiens, UniProt O43614); test: Counterscreen assay for antagonists of the orexin 1 receptor (OX1R; HCRTR1): Homogeneous Time Resolved Fluorescence (HTRF)-based cell-based dose response assay for antagonists of the orexin 2 receptor (OX2R; HCRTR2), run by assay provider.; format: functional
T2 sequence (O43614 whole entry): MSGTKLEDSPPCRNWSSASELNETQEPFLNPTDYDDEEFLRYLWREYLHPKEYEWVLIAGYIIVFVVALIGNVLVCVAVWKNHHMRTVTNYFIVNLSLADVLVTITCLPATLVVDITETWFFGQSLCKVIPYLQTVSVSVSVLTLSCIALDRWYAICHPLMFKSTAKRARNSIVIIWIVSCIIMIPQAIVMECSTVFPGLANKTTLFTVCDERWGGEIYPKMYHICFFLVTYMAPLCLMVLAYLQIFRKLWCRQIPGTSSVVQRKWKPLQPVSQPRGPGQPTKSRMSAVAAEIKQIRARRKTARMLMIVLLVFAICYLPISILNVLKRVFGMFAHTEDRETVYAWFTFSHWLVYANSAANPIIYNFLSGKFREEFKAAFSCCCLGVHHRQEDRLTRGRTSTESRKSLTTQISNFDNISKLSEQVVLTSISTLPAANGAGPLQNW

[3] = target: T1, Orexin/Hypocretin receptor type 1; test: as §1, with “Homogeneous Time Resolved Fluorescence (HTRF)-based” for “Fluorescence-based”; format: functional
[4] = tested on: CHO-K1; test: (§2) Counterscreen for antagonists of the orexin 1 receptor (OX1R; HCRTR1): Homogeneous time resolved fluorescence (HTRF)-based cell-based dose response assay to identify antagonists of the parental CHO-K1 cell line. [Related pubchem assays (depositor defined):AID434989, AID435008, AID463079, AID485270, AID492963, AID492964, AID492965, AID493232, AID504699, AID504701]; format: functional; conditions: Cricetulus griseus
[5] = as §2, with “Fluorescence-based” for “Homogeneous time resolved fluorescence (HTRF)-based”, “cell-based high throughput” for “cell-based”, “CHO” for “CHO-K1”; format: functional
[6] = target: T2, Orexin receptor type 2; test: Counterscreen assay for antagonists of the orexin 1 receptor (OX1R; HCRTR1): Fluorescence-based cell-based dose response assay for antagonists of the orexin 2 receptor (OX2R; HCRTR2), run by assay provider.; format: functional
[7] = target: Cyclin-dependent kinase 5/CDK5 activator 1 (Homo sapiens, UniProt Q00535); test: CDK5-p25 kinase inhibitors, specificity check, dose response, selectivity assay for GSK-3 alpha inhibitor project, biochemical, microfluidic mobility shift, dry powder (AID 588430)
[8] = target: T3, Ubiquitin-conjugating enzyme E2 N (Homo sapiens, UniProt P61088); format: functional;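 also: Dose-response confirmation in a TR-FRET assay detecting UBC13-driven polyubiquitin chain formation, inhibition measured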
T3 sequence (P61088 whole entry): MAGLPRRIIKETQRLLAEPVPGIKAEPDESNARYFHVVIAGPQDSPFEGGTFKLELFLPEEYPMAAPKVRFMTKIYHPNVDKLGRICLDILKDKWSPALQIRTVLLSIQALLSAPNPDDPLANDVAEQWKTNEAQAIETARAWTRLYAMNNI

[9] = target: Glycogen synthase kinase-3 alpha (Homo sapiens, UniProt P49840); test: Inhibition of Human GSK-3 alpha Activity Measured in Biochemical System Using Microfluidics - 2063-06_Inhibitor_Dose_DryPowder_Activity_Set2. [Related pubchem assays (depositor defined):AID2709]
[10] = target: T4, Glycogen synthase kinase-3 beta (Homo sapiens, UniProt P49841); test: Inhibition of Human GSK-3 beta Activity Measured in Biochemical System Using Microfluidics - 2063-05_Inhibitor_Dose_DryPowder_Activity_Set2. [Related pubchem assays (depositor defined):AID2709]
T4 sequence (P49841 whole entry): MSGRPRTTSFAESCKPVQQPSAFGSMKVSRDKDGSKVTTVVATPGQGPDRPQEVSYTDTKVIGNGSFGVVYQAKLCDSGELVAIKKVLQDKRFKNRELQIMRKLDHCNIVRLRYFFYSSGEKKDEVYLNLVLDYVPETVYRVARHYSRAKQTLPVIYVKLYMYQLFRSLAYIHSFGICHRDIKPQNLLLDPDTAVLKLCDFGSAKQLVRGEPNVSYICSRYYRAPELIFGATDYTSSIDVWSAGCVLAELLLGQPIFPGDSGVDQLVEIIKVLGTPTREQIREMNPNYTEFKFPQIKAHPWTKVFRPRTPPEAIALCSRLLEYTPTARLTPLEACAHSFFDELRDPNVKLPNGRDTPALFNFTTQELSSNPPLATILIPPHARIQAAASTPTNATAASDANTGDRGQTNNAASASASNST

[11] = target: Testis-specific serine/threonine-protein kinase 2 (Homo sapiens, UniProt Q96PF2); format: functional;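 also: part of the Navigating the Kinome panel, target entry STK22B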
[12] = target: ALK tyrosine kinase receptor (Homo sapiens, UniProt Q9UM73); format: functional;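 also: ALK tested as one member of a kinase panel screen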
Sequence of ALK tyrosine kinase receptor (Q9UM73 whole entry): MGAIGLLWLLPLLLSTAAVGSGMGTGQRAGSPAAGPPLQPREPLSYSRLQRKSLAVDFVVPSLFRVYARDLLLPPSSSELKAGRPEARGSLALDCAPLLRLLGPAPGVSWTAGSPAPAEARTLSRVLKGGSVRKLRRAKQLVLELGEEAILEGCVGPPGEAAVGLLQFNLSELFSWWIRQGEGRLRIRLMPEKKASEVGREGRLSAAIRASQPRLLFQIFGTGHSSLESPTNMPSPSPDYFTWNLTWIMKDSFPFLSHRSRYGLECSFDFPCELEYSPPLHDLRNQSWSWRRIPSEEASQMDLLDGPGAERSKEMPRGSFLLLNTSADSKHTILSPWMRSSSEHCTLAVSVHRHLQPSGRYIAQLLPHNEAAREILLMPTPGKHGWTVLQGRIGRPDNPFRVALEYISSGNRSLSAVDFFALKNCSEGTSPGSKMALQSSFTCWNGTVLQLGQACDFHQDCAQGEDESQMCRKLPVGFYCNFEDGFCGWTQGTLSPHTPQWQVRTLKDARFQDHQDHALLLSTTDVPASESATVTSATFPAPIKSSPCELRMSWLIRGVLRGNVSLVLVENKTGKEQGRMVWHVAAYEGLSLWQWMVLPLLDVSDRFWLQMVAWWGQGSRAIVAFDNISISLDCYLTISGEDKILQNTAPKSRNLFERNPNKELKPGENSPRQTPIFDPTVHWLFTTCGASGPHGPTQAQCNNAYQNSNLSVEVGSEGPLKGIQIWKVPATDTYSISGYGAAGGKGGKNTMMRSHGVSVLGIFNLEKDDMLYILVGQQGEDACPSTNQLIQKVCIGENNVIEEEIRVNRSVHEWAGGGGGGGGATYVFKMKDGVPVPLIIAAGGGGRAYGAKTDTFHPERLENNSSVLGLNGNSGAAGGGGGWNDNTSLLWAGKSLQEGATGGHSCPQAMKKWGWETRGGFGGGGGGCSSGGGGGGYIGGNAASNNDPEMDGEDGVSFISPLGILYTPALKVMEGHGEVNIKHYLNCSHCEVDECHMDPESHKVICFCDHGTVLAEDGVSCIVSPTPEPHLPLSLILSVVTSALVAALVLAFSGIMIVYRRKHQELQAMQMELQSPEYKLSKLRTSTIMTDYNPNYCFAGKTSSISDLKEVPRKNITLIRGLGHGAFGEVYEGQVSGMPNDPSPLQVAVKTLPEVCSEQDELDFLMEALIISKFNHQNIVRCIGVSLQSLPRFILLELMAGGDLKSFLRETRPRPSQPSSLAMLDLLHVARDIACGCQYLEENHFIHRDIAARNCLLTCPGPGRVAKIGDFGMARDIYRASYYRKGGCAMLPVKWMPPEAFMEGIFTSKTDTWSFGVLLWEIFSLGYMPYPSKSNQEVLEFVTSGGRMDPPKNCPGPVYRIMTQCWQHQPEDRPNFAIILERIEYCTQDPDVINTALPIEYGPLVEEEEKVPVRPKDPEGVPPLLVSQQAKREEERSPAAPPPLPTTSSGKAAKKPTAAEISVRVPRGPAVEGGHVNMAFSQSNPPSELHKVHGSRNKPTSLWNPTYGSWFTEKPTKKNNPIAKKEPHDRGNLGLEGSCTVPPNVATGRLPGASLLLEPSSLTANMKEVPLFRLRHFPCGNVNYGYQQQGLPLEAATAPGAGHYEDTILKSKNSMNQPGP

[13] = target: Interleukin-1 receptor-associated kinase 4 (Homo sapiens, UniProt Q9NWZ3); format: functional
Sequence of Interleukin-1 receptor-associated kinase 4 (Q9NWZ3 whole entry): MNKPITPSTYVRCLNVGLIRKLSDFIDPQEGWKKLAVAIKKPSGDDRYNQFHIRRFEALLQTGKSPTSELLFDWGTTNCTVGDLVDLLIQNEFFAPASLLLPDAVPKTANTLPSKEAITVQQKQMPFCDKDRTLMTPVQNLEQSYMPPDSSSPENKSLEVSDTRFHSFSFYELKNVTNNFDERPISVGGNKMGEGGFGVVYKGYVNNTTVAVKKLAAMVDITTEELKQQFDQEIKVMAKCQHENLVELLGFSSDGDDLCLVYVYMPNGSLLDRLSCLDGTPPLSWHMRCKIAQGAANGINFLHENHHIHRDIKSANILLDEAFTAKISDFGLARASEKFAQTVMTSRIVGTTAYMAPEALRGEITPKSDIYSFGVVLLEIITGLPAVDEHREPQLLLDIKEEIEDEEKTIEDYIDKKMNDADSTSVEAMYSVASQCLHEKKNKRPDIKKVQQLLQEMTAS

[14] = target: cAMP-dependent protein kinase catalytic subunit alpha (Homo sapiens, UniProt P17612); format: functional
[15] = target: Cell division cycle 7-related protein kinase (Homo sapiens, UniProt O00311); format: functional;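 also: value obtained from a kinome-wide kinase panel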
Sequence of Cell division cycle 7-related protein kinase (O00311 whole entry): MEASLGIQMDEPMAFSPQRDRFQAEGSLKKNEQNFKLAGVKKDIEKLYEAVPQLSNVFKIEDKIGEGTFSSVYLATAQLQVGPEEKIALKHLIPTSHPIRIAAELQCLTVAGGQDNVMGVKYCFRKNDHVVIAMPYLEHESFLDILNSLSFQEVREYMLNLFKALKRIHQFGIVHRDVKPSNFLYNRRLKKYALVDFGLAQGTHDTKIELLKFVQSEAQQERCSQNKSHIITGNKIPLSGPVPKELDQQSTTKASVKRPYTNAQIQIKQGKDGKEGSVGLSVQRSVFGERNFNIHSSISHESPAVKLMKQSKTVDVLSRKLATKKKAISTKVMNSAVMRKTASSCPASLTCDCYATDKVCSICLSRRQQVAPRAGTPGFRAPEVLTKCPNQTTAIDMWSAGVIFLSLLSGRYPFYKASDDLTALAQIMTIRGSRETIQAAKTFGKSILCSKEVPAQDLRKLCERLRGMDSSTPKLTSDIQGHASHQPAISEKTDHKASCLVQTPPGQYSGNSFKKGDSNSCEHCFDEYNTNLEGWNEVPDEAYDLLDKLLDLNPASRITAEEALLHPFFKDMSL

[16] = target: Homeodomain-interacting protein kinase 2 (Homo sapiens, UniProt Q9H2X6); format: functional;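 also: measured within a kinome-wide kinase profiling panel, HIPK2 being one panel member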
[17] = target: Serine/threonine-protein kinase pim-1 (Homo sapiens, UniProt P11309); format: functional
Sequence of Serine/threonine-protein kinase pim-1 (P11309 whole entry): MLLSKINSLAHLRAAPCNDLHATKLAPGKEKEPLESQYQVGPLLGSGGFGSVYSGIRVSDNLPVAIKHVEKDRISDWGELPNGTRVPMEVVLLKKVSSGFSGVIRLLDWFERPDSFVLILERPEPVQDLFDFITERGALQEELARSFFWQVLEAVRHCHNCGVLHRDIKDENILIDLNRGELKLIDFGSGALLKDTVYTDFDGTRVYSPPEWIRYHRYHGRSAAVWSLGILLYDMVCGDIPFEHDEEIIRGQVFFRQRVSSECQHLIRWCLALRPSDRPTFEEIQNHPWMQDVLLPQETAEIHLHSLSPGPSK

[18] = target: T4, Glycogen synthase kinase-3 beta; format: functional
[19] = viability loss in Mcl1-dependent HMC-1-8 cells, dose response, selectivity assay for A1 inhibitor project, cell-based, luminescence, dry powder (AID 504415); format: functional; conditions: Homo sapiens
[20] = target: T5, Apoptotic protease-activating factor 1 (Homo sapiens, UniProt O14727); test: SAR analysis of small molecule inhibitors of Apaf-1 in a Fluorescent assay.; format: functional; conditions: read-out: IC50_Mean
T5 sequence (O14727 whole entry): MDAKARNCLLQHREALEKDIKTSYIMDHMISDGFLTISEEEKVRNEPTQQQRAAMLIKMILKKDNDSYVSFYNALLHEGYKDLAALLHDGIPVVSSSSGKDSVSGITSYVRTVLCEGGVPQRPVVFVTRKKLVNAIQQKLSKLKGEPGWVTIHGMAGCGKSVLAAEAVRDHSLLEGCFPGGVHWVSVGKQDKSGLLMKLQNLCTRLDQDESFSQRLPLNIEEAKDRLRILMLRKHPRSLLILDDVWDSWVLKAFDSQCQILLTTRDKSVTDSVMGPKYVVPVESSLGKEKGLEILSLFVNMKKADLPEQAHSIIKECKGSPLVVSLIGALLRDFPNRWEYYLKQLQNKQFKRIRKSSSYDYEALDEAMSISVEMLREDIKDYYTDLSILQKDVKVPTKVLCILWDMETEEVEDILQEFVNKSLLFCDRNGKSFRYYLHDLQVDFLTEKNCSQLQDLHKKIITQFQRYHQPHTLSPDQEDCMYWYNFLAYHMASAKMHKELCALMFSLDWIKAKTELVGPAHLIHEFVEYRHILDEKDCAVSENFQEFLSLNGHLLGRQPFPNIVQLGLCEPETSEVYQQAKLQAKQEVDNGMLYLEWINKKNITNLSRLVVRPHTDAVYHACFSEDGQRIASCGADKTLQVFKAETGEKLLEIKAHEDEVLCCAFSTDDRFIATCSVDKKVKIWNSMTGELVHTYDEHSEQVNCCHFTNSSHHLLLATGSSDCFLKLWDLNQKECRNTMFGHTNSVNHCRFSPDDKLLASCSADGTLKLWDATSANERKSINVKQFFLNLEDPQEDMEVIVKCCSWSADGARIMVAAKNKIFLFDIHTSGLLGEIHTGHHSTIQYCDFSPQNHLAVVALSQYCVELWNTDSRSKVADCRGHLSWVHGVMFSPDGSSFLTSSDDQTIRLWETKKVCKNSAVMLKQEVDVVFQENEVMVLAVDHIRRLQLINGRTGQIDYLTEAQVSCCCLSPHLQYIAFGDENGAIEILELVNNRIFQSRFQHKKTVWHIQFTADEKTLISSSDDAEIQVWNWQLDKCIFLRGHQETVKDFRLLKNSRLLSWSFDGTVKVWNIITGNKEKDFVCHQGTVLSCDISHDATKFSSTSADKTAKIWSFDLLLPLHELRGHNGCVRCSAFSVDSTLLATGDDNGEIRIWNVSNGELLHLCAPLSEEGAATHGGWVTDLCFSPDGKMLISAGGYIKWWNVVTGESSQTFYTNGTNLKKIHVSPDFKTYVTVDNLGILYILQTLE

[21] = target: T6, High affinity choline transporter 1 (Homo sapiens, UniProt Q9GZV3); test: CHT activators, dose response, cell-based, 10-point CRC, membrane potential dye (AID 602376); format: functional
T6 sequence (Q9GZV3 whole entry): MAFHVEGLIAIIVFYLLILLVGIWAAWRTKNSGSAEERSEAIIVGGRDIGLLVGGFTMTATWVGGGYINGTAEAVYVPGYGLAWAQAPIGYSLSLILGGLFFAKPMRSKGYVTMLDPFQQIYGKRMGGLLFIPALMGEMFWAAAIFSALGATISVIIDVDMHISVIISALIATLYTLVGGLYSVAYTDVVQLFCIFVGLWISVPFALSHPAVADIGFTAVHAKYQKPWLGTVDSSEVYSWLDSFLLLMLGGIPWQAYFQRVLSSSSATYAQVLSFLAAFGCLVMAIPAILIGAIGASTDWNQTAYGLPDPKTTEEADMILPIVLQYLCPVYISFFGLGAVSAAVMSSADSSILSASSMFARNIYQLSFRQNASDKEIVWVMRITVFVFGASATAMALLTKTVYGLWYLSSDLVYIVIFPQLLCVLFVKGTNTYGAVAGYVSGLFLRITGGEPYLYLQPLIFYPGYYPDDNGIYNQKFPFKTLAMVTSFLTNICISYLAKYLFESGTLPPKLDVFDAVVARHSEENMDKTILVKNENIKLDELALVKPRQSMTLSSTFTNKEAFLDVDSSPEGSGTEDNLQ

[22] = cells; conditions: A549
[23] = target: RNA-editing ligase 1, mitochondrial (Trypanosoma brucei brucei, UniProt P86926); test: TbREL1 ligase inhibitors, dose response, biochemical, fluorescence, Trypanosoma brucei (AID 1117295); format: functional
Sequence of RNA-editing ligase 1, mitochondrial (P86926 whole entry): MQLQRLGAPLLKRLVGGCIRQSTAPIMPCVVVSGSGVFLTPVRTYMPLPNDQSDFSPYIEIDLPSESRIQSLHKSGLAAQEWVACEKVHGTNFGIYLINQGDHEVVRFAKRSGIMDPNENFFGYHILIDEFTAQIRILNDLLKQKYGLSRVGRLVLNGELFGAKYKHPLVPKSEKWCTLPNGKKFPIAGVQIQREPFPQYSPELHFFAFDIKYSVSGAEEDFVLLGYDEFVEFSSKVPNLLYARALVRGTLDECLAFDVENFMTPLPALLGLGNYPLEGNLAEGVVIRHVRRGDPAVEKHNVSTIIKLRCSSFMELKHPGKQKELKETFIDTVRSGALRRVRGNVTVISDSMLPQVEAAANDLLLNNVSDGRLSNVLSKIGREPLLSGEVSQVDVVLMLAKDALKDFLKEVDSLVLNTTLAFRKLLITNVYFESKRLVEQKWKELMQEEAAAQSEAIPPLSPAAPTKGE

[24] = tested on: INS1; test: beta cell apoptosis inhibitors, cytokine rescue, dose response, luminescence, retest (AID 449756); format: functional, cell-based; conditions: Rattus norvegicus;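 also: cell death triggered by IL-1 beta plus TNF-alpha plus IFN-gamma mixture; protective hits raise ATP signal compared with cytokine alone wells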
[25] = HepG2 cell cytotoxicity, dose response, cytotoxicity control, ATP luminescence, cherry-pick, set 6 (AID 1053125); format: functional, cell-based
[26] = Luminescence Cell-Based Dose Retest to Confirm Inhibitors of Cancer Stem Cells. [Related pubchem assays (depositor defined):AID2717, AID2721]; format: functional; conditions: Homo sapiens
[27] = cells; conditions: HEK293
[28] = target: T7, Methionyl-tRNA synthetase, putative (Trypanosoma brucei brucei, UniProt Q38C91); format: functional, Trypanosoma brucei brucei strain 927/4 GUTat10.1
T7 sequence (Q38C91 whole entry): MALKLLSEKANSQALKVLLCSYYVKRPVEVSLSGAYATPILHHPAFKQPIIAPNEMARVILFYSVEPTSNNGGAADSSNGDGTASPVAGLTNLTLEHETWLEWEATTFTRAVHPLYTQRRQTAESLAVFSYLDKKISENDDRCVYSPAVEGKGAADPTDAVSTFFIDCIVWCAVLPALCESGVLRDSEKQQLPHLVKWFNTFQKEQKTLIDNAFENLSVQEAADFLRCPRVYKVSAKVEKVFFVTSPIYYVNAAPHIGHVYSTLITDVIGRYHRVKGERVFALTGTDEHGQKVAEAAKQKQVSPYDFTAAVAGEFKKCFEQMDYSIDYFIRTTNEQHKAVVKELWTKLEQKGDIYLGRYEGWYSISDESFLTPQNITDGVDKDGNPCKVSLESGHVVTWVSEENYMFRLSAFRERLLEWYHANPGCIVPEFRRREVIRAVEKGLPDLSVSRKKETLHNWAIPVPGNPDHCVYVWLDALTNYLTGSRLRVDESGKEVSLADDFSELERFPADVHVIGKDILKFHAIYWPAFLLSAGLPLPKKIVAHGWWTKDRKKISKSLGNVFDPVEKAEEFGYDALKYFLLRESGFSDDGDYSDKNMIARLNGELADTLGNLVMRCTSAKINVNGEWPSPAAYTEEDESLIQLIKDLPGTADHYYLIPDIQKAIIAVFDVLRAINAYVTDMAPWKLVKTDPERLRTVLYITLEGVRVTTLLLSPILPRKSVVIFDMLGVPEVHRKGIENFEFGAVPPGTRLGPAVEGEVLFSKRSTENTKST

[29] = Counterscreen for inhibitors of Trypanosoma brucei methionyl tRNA synthetase (MetRS): Luminescence-based cell-based high throughput dose response assay to identify compounds that are cytotoxic to Jurkat human T lymphocyte cells.; format: functional
[30] = target: T7, Methionyl-tRNA synthetase, putative; format: functional, Trypanosoma brucei brucei strain 927/4 GUTat10.1; remark: listed apart in the source
[31] = target: Protein disulfide-isomerase (Homo sapiens, UniProt P07237); test: PDI inhibitors, insulin aggregation turbidity, dose response, biochemical, absorbance, cherry-picked samples (AID 602350); format: functional
Sequence of Protein disulfide-isomerase (P07237 whole entry): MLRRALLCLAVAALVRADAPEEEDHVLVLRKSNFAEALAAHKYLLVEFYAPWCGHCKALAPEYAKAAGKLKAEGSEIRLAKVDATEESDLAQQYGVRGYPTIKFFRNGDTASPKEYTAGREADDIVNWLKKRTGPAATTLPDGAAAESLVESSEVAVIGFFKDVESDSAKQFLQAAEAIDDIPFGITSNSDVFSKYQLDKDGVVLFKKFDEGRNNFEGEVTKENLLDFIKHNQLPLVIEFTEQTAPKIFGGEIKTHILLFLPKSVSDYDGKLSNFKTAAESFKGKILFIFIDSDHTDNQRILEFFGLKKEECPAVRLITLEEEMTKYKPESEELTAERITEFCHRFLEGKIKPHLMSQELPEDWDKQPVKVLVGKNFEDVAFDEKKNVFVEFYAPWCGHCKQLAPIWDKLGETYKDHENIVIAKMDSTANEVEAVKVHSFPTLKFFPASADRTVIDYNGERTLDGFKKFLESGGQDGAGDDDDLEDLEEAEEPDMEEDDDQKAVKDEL

SMILES: Cc1ccc(-c2cc3nc(-c4ccccc4)cc(N4CCC5(CC4)OCCO5)n3n2)cc1
IC50 [1]: 17.4 µM (inactive) | IC50 [2]: > 50 µM (inactive) | IC50 [3]: 5.68 µM (active) | IC50 [4]: > 66.2 µM (inactive) | IC50 [5]: > 49.7 µM (inactive) | IC50 [6]: 24.9 µM (inactive)

SMILES: Cc1ccc(Sc2c([N+](=O)[O-])cnc3ccccc23)cc1
AC50 [19]: 22.9 µM (active)

SMILES: COc1ccc(C[C@H]2CN3C(=NC[C@@H]3Cc3ccccc3)N2CCNC(=O)CCC2CCCCC2)cc1
EC50 [21]: 22 µM (active) | AC50 [22]: 8.94 µM (active) | IC50 [8]: > 20 µM (inactive) | IC50 [23]: > 96.6 µM (inactive) | AC50 [24]: 5.74 µM (active) | AC50 [25]: 7.94 µM (active) | AC50 [26]: 11.2 µM (active) | AC50 [27]: 13.4 µM (active)

SMILES: C[C@H]1CN([C@@H](C)CO)C(=O)Cc2cc(NC(=O)Nc3ccccc3)ccc2O[C@H]1CN(C)Cc1ccccc1
IC50 [28]: 21.4 µM (inactive) | IC50 [29]: 27.8 µM (inactive) | IC50 [30]: 25.1 µM (inactive) | AC50 [31]: 10.3 µM (active)

Other lines, results leading:

AC50 [7]: 28.4 µM (active) | IC50 [8]: > 20 µM (inactive) | AC50 [9]: 984 nM (active) | AC50 [10]: 351 nM (active)
SMILES: O/N=C/c1cn(-c2ccccc2)nc1-c1ccc2c(c1)OCCO2

Ki [11]: > 1.58 µM (inactive)
SMILES: CNC(=O)c1cc(Oc2ccc(NC(=O)Nc3ccc(Cl)c(C(F)(F)F)c3)cc2)ccn1 [SORAFENIB]

Ki [12]: > 5.01 µM (inactive) | Ki [13]: 200 nM (active) | Ki [14]: 39.8 nM (active) | Ki [15]: 7.94 nM (active) | Ki [16]: 158 nM (active) | Ki [17]: 251 nM (active) | Ki [18]: 39.8 nM (active)
SMILES: CN(Cc1ccccc1)c1cc(-c2c[nH]c3ncccc23)cc(Cl)n1

IC50 [20]: > 100 µM (inactive)
SMILES: CC(=O)c1ccc(C(=O)Nc2ccc3[nH]c(C)nc3c2)s1
